Measured values taken from PubChem BioAssay AID330 (DTP/NCI, 2004).
Where “and” joins values, the source holds several entries; their conditions need not be identical. Equal entries are not always repeated. Toxic doses and inconclusive results are not listed. Rule for the calls: active = survival T/C of 150% or more; inactive = T/C below 125% in these data.

System: P388 leukemia ip, CD2F1 mice, survival T/C
Assay: NCI In Vivo Anticancer Drug Screen. Data for tumor model P388 Leukemia (intraperitoneal) in CD2F1 (CDF1) mice
Settings: endpoint: median survival time, higher = longer survival
In short: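 Mice carrying the transplanted tumor received test compound or vehicle. Survival was recorded in each group, and the value is the treated-group measurement divided by that of the vehicle-treated control group.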

[1] = dose: 60.0 mg/kg/injection, schedule: Q01DX005 (ip), vehicle: saline with Tween-80
[2] = dose: 120.0 mg/kg/injection, schedule: Q01DX005 (ip), vehicle: saline with Tween-80
[3] = dose: 50.0 mg/kg/injection, schedule: Q01DX005 (ip), vehicle: saline with Tween-80
[4] = dose: 100.0 mg/kg/injection, schedule: Q01DX005 (ip), vehicle: saline with Tween-80
[5] = dose: 200.0 mg/kg/injection, schedule: Q01DX005 (ip), vehicle: saline with Tween-80

Measured: T/C

CC(=O)Nc1ncnc2c1c(C(N)=O)cn2C1OC(COC(C)=O)C(OC(C)=O)C1OC(C)=O (stereo not drawn)
inactive: dose: 1.88 mg/kg/injection, schedule: Q01DX005 (ip), vehicle: saline 107 % of control | dose: 3.75 mg/kg/injection, schedule: Q01DX005 (ip), vehicle: saline 117 % of control

CCN(CC)Cc1cc(C(CC(=O)c2ccccc2)S(=O)(=O)c2ccc(C)cc2)ccc1O (stereo not drawn)
inactive: dose: 12.5 mg/kg/injection, schedule: Q01DX009 (ip), vehicle: saline with Tween-80 88 % of control | dose: 25.0 mg/kg/injection, schedule: Q01DX009 (ip), vehicle: saline with Tween-80 89 % of control | dose: 50.0 mg/kg/injection, schedule: Q01DX009 (ip), vehicle: saline 93 % of control

CCN(CC)C(=O)N1C=CC(c2ccccc2)C(C(C)=O)=C1 (stereo not drawn)
inactive: [1] 91 % of control | [2] 103 % of control | dose: 240.0 mg/kg/injection, schedule: Q01DX005 (ip), vehicle: saline with Tween-80 101 % of control

CS(=O)(=O)/C=C/c1ccccc1
inactive: dose: 50.0 mg/kg/injection, schedule: Q01DX009 (ip), vehicle: saline with Tween-80 103 % of control | dose: 100.0 mg/kg/injection, schedule: Q01DX009 (ip), vehicle: saline with Tween-80 90 % of control | dose: 200.0 mg/kg/injection, schedule: Q01DX009 (ip), vehicle: saline with Tween-80 90 % of control

Cc1c2c(nn1C)CCOC2=O
inactive: dose: 100.0 mg/kg/injection, schedule: Q01DX001 (ip), vehicle: Klucel (hydroxypropylcellulose) (HPC) 100 % of control | dose: 200.0 mg/kg/injection, schedule: Q01DX001 (ip), vehicle: Klucel (hydroxypropylcellulose) (HPC) 101 % of control | dose: 400.0 mg/kg/injection, schedule: Q01DX001 (ip), vehicle: Klucel (hydroxypropylcellulose) (HPC) 95 % of control

CCOc1cccc2c1CCC(O[Si](C)(C)C(C)(C)C)C2 (stereo not drawn)
inactive: [3] 94 % of control | [4] 95 % of control | [5] 96 % of control

O=C1CC2(CCc3ccccc32)C(=O)N1CN1CCN(CCO)CC1 (stereo not drawn)
inactive: dose: 50.0 mg/kg/injection, schedule: Q01DX005 (ip), vehicle: saline 106 % of control | dose: 100.0 mg/kg/injection, schedule: Q01DX005 (ip), vehicle: saline 110 % of control | dose: 200.0 mg/kg/injection, schedule: Q01DX005 (ip), vehicle: saline 115 % of control

NC(Cc1ccc(O)c(N=Nc2ccc([N+](=O)[O-])cc2)c1)C(=O)O (stereo not drawn)
inactive: dose: 100.0 mg/kg/injection, schedule: Q01DX001 (ip), vehicle: saline 103 % of control | dose: 200.0 mg/kg/injection, schedule: Q01DX001 (ip), vehicle: saline 100 % of control | dose: 400.0 mg/kg/injection, schedule: Q01DX001 (ip), vehicle: saline 100 % of control

NC(=O)C1OC(n2cnc3c(N)ncnc32)C(O)C1O (stereo not drawn)
inactive: dose: 1.56 mg/kg/injection, schedule: Q01DX005 (ip), vehicle: saline with Tween-80 100 % of control and 104 % of control | dose: 3.13 mg/kg/injection, schedule: Q01DX005 (ip), vehicle: saline with Tween-80 105 % of control and 114 % of control | dose: 6.25 mg/kg/injection, schedule: Q01DX005 (ip), vehicle: saline with Tween-80 109 % of control and 115 % of control and 121 % of control

S=c1nc[nH]c2nc(-c3ccccc3)[nH]c12
inactive: dose: 12.5 mg/kg/injection, schedule: Q01DX005 (ip), vehicle: other 101 % of control | dose: 25.0 mg/kg/injection, schedule: Q01DX005 (ip), vehicle: other 100 % of control | dose: 50.0 mg/kg/injection, schedule: Q01DX005 (ip), vehicle: other 101 % of control | dose: 100.0 mg/kg/injection, schedule: Q01DX005 (ip), vehicle: other 92 % of control | dose: 200.0 mg/kg/injection, schedule: Q01DX005 (ip), vehicle: other 92 % of control

ClCCN(CCCl)c1ccc2c(c1)Cc1cc(Br)ccc1-2
inactive: dose: 50.0 mg/kg/injection, schedule: Q01DX009 (ip), vehicle: Klucel (hydroxypropylcellulose) (HPC) 107 % of control | dose: 100.0 mg/kg/injection, schedule: Q01DX009 (ip), vehicle: Klucel (hydroxypropylcellulose) (HPC) 110 % of control | dose: 200.0 mg/kg/injection, schedule: Q01DX009 (ip), vehicle: Klucel (hydroxypropylcellulose) (HPC) 106 % of control | dose: 400.0 mg/kg/injection, schedule: Q01DX009 (ip), vehicle: Klucel (hydroxypropylcellulose) (HPC) 110 % of control

CC1=Nc2nc(=N)nc3cccc(n23)N1
inactive: [1] 95 % of control | [2] 104 % of control

Cc1cc(O)c(CCC(C)CCCC(C)C)c(O)c1 (stereo not drawn)
inactive: dose: 50.0 mg/kg/injection, schedule: Q01DX005 (ip), vehicle: Klucel (hydroxypropylcellulose) (HPC) 100 % of control | dose: 100.0 mg/kg/injection, schedule: Q01DX005 (ip), vehicle: Klucel (hydroxypropylcellulose) (HPC) 100 % of control | dose: 200.0 mg/kg/injection, schedule: Q01DX005 (ip), vehicle: Klucel (hydroxypropylcellulose) (HPC) 110 % of control

S=C(S)n1nc(-c2ccccc2)c(N=Nc2ccc(Cl)cc2Cl)c1-c1ccccc1
inactive: [3] 94 % of control | [4] 89 % of control | [5] 89 % of control
